This note sets out measurements from the supplement of paper PMC11061612.

Assay [1] relates to OCI-AML3 (Acute Myeloid Leukemia). Put plainly: Bliss excess, mean over the matrix (fraction); higher = more synergy. The method in brief: (§1)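 Bliss excess equals the observed combination effect minus the expected value EA + EB − EA·EB, where EA and EB are the effects of each agent alone. Combination Emax is the second-highest inhibition within the matrix. Inhibition was scaled from CellTiter-Glo 2.0 luminescence, with 0 set by vehicle wells and 1 by blank wells, after 72 hours of two-drug dosing of cells plated in 1536-well plates.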

The test system of assay [2] is COR-L279 (Small Cell Lung Carcinoma). Put plainly: combination Emax (second highest fraction inhibited in the dose matrix, 72 h); higher = more inhibition; extreme values may be limits of the assay. The method in brief: as §1
Assay [3] deals with CW-2 (Colorectal Carcinoma). Described as above. The method in brief:
as §1

In assay [4] the test system is DMS-114 (Small Cell Lung Carcinoma). The assay is described as above. The method in brief: as §1
The subject of assay [5] is KP-3 (Pancreatic Carcinoma). Described as above. The method in brief:
as §1

In assay [6] the test system is KU812 (Chronic Myelogenous Leukemia). The assay is described as above. The method in brief: as §1
Assay [7] relates to KYSE-270 (Esophageal Squamous Cell Carcinoma). Described as above. The method in brief: as §1
Another assay has as its system M059J (Glioblastoma). The description is as above. The method in brief: as §1
The subject of assay [8] is MOG-G-CCM (Low Grade Glioma). The assay is described as above. The method in brief: as §1
The subject of assay [9] is NCCIT (Other Solid Carcinomas). Described as above. The method in brief:
as §1

A further assay has as its system NCI-H2731 (Mesothelioma). Described as above. The method in brief:
as §1

Assay [10] deals with NCI-H3122 (Lung Adenocarcinoma). Described as above. The method in brief: as §1
The test system of assay [11] is NCI-H526 (Small Cell Lung Carcinoma). Described as above. The method in brief: as §1
Assay [12] has as its system NCI-H929 (Plasma Cell Myeloma). The description is as above. The method in brief: as §1
For assay [13], the system named is OCI-AML3 (Acute Myeloid Leukemia). Described as above. The method in brief:
as §1

The subject of the next assay is SJSA-1 (Osteosarcoma). The description is as above. The method in brief:
as §1

Assay [14] has as its system SK-GT-4 (Esophageal Adenocarcinoma). The description is as above. The method in brief: as §1
The subject of assay [15] is ST486 (Burkitt's Lymphoma). The description is as above. The method in brief: as §1
Assay [16] deals with T-T (Esophageal Squamous Cell Carcinoma). The assay is described as above. The method in brief: as §1
For assay [17], the system named is VMRC-RCZ (Kidney Carcinoma). The assay is described as above. The method in brief:
as §1

On to `Cc1c2c(nn1C)CSCc1cc(n(C)n1)CSc1cc(c3ccccc3c1)OCCCc1c(C(=O)O)n(C)c3c-2c(Cl)ccc13` [AZD5991] + CS(=O)(=O)CCNCc1ccc(-c2ccc3ncnc(Nc4ccc(OCc5cccc(F)c5)c(Cl)c4)c3c2)o1 [Lapatinib] (first compound max 1 µM, 7x7, partner max 10 µM), for which the Bliss excess in [1] is -0.0516. In addition, the “combination Emax” value was 0.903 in assay [2]; 0.531 in assay [3]; 0.608 in assay [4]; 0.303 in assay [5]; 0.867 in assay [6]; 0.959 in assay [7]. The “combination Emax” value worked out at 0.456 in the assay with M059J (Glioblastoma); 0.358 in [8]; 0.635 in [9]; 0.44 in the assay on NCI-H2731 (Mesothelioma); 0.392 in assay [10]; 0.469 in [11]. Further, the “combination Emax” value worked out at 1 in assay [12]; 0.985 in assay [13]; 0.196 with SJSA-1 (Osteosarcoma); 0.379 in assay [14]; 0.758 in [15]; 0.988 in assay [16]. Also, in [17], the “combination Emax” value stood at 0.209.
With `O=C(c1cc(Cc2n[nH]c(=O)c3ccccc23)ccc1F)N1CCN(C(=O)C2CC2)CC1` [Olaparib] + Cc1c2c(nn1C)CSCc1cc(n(C)n1)CSc1cc(c3ccccc3c1)OCCCc1c(C(=O)O)n(C)c3c-2c(Cl)ccc13 [AZD5991] (first compound max 10 µM, 7x7, partner max 1 µM), in assay [1], the Bliss excess turned out to be 0.0224. Further, the “combination Emax” value in assay [2] came to 0.961; in [3], 0.101; in assay [4] it was 0.55; in [5], 0.028; in [6], 0.784; in [7], 0.625. Besides, the “combination Emax” value with M059J (Glioblastoma) turned out to be 0.254; in assay [8], 0.222; in assay [9], 0.527; in the assay with NCI-H2731 (Mesothelioma) it was 0.0516; in [10], 0.315; in assay [11] it was 0.805. In addition, the “combination Emax” value in [12] came out at 1; in assay [13], 0.98; in the assay on SJSA-1 (Osteosarcoma), 0.0831; in assay [14], 0.0608; in [15], 0.558; in [16], 0.801. Also, the “combination Emax” value in [17] was 0.0573.
In the case of `O=C(c1cc(Cc2n[nH]c(=O)c3ccccc23)ccc1F)N1CCN(C(=O)C2CC2)CC1` [Olaparib] + CC1(C)CCC(CN2CCN(c3ccc(C(=O)NS(=O)(=O)c4ccc(NCC5CCOCC5)c([N+](=O)[O-])c4)c(Oc4cnc5[nH]ccc5c4)c3)CC2)=C(c2ccc(Cl)cc2)C1 [Venetoclax] (first compound max 10 µM, 7x7, partner max 1 µM), the Bliss excess in assay [1] was 0.0202. Further, the “combination Emax” value amounted to 0.943 in assay [2]; 0.118 in [3]; 0.262 in assay [4]; 0.0923 in assay [5]; 0.403 in assay [6]; 0.302 in assay [7]. The “combination Emax” value turned out to be 0.291 with M059J (Glioblastoma); 0.168 in assay [8]; 0.231 in assay [9]; 0.0659 in the assay with NCI-H2731 (Mesothelioma); 0.226 in assay [10]; 0.862 in assay [11]. For the same compound, the “combination Emax” value stood at 0.21 in [12]; 0.427 in assay [13]; 0.118 in the assay with SJSA-1 (Osteosarcoma); 0.101 in assay [14]; 0.217 in [15]; 0.177 in assay [16]. The “combination Emax” value in assay [17] is 0.0266.
`C=CCn1c(=O)c2cnc(Nc3ccc(N4CCN(C)CC4)cc3)nc2n1-c1cccc(C(C)(C)O)n1` [AZD1775] + CCc1c2c(nc3ccc(O)cc13)-c1cc3c(c(=O)n1C2)COC(=O)[C@]3(O)CC [SN-38] (first compound max 1 µM, partner max 0.3 µM): the Bliss excess in [1] is -0.103. For the same compound, the “combination Emax” value in assay [2] came out at 1; in assay [3] it was 0.625; in assay [4] it was 0.655; in [5] it was 0.397; in assay [6], 0.87; in assay [7] it was 0.981. Moreover, the “combination Emax” value was found to be 0.891 with M059J (Glioblastoma); 0.703 in assay [8]; 0.841 in assay [9]; 0.496 in the assay with NCI-H2731 (Mesothelioma); 0.853 in assay [10]; 1 in assay [11]. Further, the “combination Emax” value in assay [12] stood at 0.927; in [13] it was 0.922; in the assay with SJSA-1 (Osteosarcoma), 0.706; in assay [14], 0.486; in assay [15] it was 0.997; in assay [16], 0.776. In addition, in [17], the “combination Emax” value is 0.462.
Turning to `Cc1nc(-c2cn3c(n2)-c2ccc(-c4cnn(C(C)(C)C(N)=O)c4)cc2OCC3)n(C(C)C)n1` [Taselisib] + O=C(Nc1ccc2[nH]nc(-c3ccncc3)c2c1)[C@@H]1CCN(CC(=O)N2CCN(c3ccc(-c4ncccn4)cc3)CC2)C1 [SCH772984] (first compound max 10 µM, 7x7, partner max 5 µM), the Bliss excess in [1] was determined as 0.0661. Moreover, the “combination Emax” value was found to be 0.835 in assay [2]; 0.546 in [3]; 0.732 in assay [4]; 0.354 in assay [5]; 1 in assay [6]; 0.822 in assay [7]. The “combination Emax” value in the assay with M059J (Glioblastoma) turned out to be 0.564; in assay [8], 0.577; in [9], 0.693; in the assay on NCI-H2731 (Mesothelioma), 0.553; in [10], 0.978; in [11], 0.189. Moreover, the “combination Emax” value in assay [12] is 1; in [13], 0.941; in the assay on SJSA-1 (Osteosarcoma), 0.69; in [14], 0.924; in assay [15], 0.654; in [16], 0.853. Further, the “combination Emax” value in [17] was 0.361.
